Reference: PubChem BioAssay (NCI)
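GI50 = concentration required for 50% inhibition of growth. TGI: total growth inhibition.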

Key:
Assay in all cases: NCI-60 cell line screen, 384-well format
HT29 colon = test system: HT29 colon
NCI-H522 lung = test system: NCI-H522 lung
T-47D breast = test system: T-47D breast
EKVX NSCLC = test system: EKVX NSCLC
DU-145 prostate = test system: DU-145 prostate
SK-MEL-5 melanoma = test system: SK-MEL-5 melanoma
SF-539 CNS = test system: SF-539 CNS
RXF 393 renal = test system: RXF 393 renal
OVCAR-4 ovarian = test system: OVCAR-4 ovarian
SK-MEL-28 melanoma = test system: SK-MEL-28 melanoma
HCT-15 colon = test system: HCT-15 colon
MCF7 breast = test system: MCF7 breast
SNB-19 CNS = test system: SNB-19 CNS
SK-OV-3 ovarian = test system: SK-OV-3 ovarian
MDA-MB-231 breast = test system: MDA-MB-231 breast
786-0 renal = test system: 786-0 renal
TK-10 renal = test system: TK-10 renal
IGROV1 ovarian = test system: IGROV1 ovarian
OVCAR-3 ovarian = test system: OVCAR-3 ovarian
MOLT-4 leukemia = test system: MOLT-4 leukemia
A498 renal = test system: A498 renal
UACC-62 melanoma = test system: UACC-62 melanoma
HOP-62 NSCLC = test system: HOP-62 NSCLC
OVCAR-5 ovarian = test system: OVCAR-5 ovarian
A549 NSCLC = test system: A549 NSCLC
NCI-H23 lung = test system: NCI-H23 lung
ACHN renal = test system: ACHN renal
OVCAR-8 ovarian = test system: OVCAR-8 ovarian
CAKI-1 renal = test system: CAKI-1 renal
NCI-H322M lung = test system: NCI-H322M lung
SR leukemia = test system: SR leukemia
HOP-92 NSCLC = test system: HOP-92 NSCLC
SK-MEL-2 melanoma = test system: SK-MEL-2 melanoma
MDA-MB-435 melanoma = test system: MDA-MB-435 melanoma
HS 578T breast = test system: HS 578T breast
PC-3 prostate = test system: PC-3 prostate
U251 glioblastoma = test system: U251 glioblastoma
SF-268 CNS = test system: SF-268 CNS
MDA-MB-468 breast = test system: MDA-MB-468 breast
NCI-H226 lung = test system: NCI-H226 lung
NCI-H460 NSCLC = test system: NCI-H460 NSCLC
UACC-257 melanoma = test system: UACC-257 melanoma
M14 melanoma = test system: M14 melanoma
SN12C renal = test system: SN12C renal
HCT-116 colon = test system: HCT-116 colon
SNB-75 CNS = test system: SNB-75 CNS
UO-31 renal = test system: UO-31 renal
MALME-3M melanoma = test system: MALME-3M melanoma
K-562 leukemia = test system: K-562 leukemia
SW-620 colon = test system: SW-620 colon
HL-60(TB) leukemia = test system: HL-60(TB) leukemia
SF-295 CNS = test system: SF-295 CNS
BT-549 breast = test system: BT-549 breast
KM12 colon = test system: KM12 colon
COLO 205 colon = test system: COLO 205 colon

For CC(C)N(C[C@H]1O[C@@H](n2cnc3c(N)ncnc32)[C@H](O)[C@@H]1O)C1CC(CCc2nc3ccc(C(C)(C)C)cc3[nH]2)C1 (stereo not given in full), the GI50 (HT29 colon) was 19.1 µM, the TGI (HT29 colon) was 35.3 µM and the GI50 (NCI-H522 lung) was 20.1 µM. For the same compound, the TGI (NCI-H522 lung) was 35.3 µM, the GI50 (T-47D breast) was 39 µM and the TGI (T-47D breast) was greater than 100 µM. For the same compound, the GI50 (EKVX NSCLC) was 88.1 µM, the TGI (EKVX NSCLC) was greater than 100 µM and the GI50 (DU-145 prostate) was greater than 100 µM. The TGI (DU-145 prostate) was greater than 100 µM, the GI50 (SK-MEL-5 melanoma) was 23.9 µM and the TGI (SK-MEL-5 melanoma) was 69.4 µM. For the same compound, the GI50 (SF-539 CNS) was 43.9 µM, the TGI (SF-539 CNS) was greater than 100 µM and the GI50 (RXF 393 renal) was 25.3 µM. For the same compound, the TGI (RXF 393 renal) was 79 µM, the GI50 (OVCAR-4 ovarian) was 79.9 µM and the TGI (OVCAR-4 ovarian) was greater than 100 µM. The GI50 (SK-MEL-28 melanoma) was 18 µM, the TGI (SK-MEL-28 melanoma) was 31.9 µM and the GI50 (HCT-15 colon) was greater than 100 µM. It also gave a TGI (HCT-15 colon) greater than 100 µM, a GI50 (MCF7 breast) of 20 µM and a TGI (MCF7 breast) of 45.2 µM. The GI50 (SNB-19 CNS) was greater than 100 µM, the TGI (SNB-19 CNS) was greater than 100 µM and the GI50 (SK-OV-3 ovarian) was greater than 100 µM. It also gave a TGI (SK-OV-3 ovarian) greater than 100 µM, a GI50 (MDA-MB-231 breast) of 35.4 µM and a TGI (MDA-MB-231 breast) greater than 100 µM. For the same compound, the GI50 ([…]-0 renal) was greater than 100 µM, the TGI (786-0 renal) was greater than 100 µM and the GI50 (TK-10 renal) was 83.9 µM. The TGI (TK-10 renal) was greater than 100 µM, the GI50 (IGROV1 ovarian) was 51 µM and the TGI (IGROV1 ovarian) was greater than 100 µM. For the same compound, the GI50 (OVCAR-3 ovarian) was 49.6 µM, the TGI (OVCAR-3 ovarian) was greater than 100 µM and the GI50 (MOLT-4 leukemia) was 18.8 µM. For the same compound, the TGI (MOLT-4 leukemia) was 32.8 µM, the GI50 (A498 renal) was greater than 100 µM and the TGI (A498 renal) was greater than 100 µM. For the same compound, the GI50 (UACC-62 melanoma) was 16.9 µM, the TGI (UACC-62 melanoma) was 30.7 µM and the GI50 (HOP-62 NSCLC) was greater than 100 µM. The TGI (HOP-62 NSCLC) was greater than 100 µM, the GI50 (OVCAR-5 ovarian) was greater than 100 µM and the TGI (OVCAR-5 ovarian) was greater than 100 µM. The GI50 (A549 NSCLC) was greater than 100 µM, the TGI (A549 NSCLC) was greater than 100 µM and the GI50 (NCI-H23 lung) was 46.6 µM. It also gave a TGI (NCI-H23 lung) greater than 100 µM, a GI50 (ACHN renal) greater than 100 µM and a TGI (ACHN renal) greater than 100 µM. For the same compound, the GI50 (OVCAR-8 ovarian) was greater than 100 µM, the TGI (OVCAR-8 ovarian) was greater than 100 µM and the GI50 (CAKI-1 renal) was greater than 100 µM. For the same compound, the TGI (CAKI-1 renal) was greater than 100 µM, the GI50 (NCI-H322M lung) was greater than 100 µM and the TGI (NCI-H322M lung) was greater than 100 µM. The GI50 (SR leukemia) was 17.9 µM, the TGI (SR leukemia) was 31.8 µM and the GI50 (HOP-92 NSCLC) was 19.2 µM. It also gave a TGI (HOP-92 NSCLC) of 40.9 µM, a GI50 (SK-MEL-2 melanoma) of 15.8 µM and a TGI (SK-MEL-2 melanoma) of 29.3 µM. It also gave a GI50 (MDA-MB-435 melanoma) of 17.9 µM, a TGI (MDA-MB-435 melanoma) of 31.8 µM and a GI50 (HS 578T breast) of 20.5 µM. For the same compound, the TGI (HS 578T breast) was 37 µM, the GI50 (PC-3 prostate) was 47 µM and the TGI (PC-3 prostate) was greater than 100 µM. For the same compound, the GI50 (U251 glioblastoma) was 41.7 µM, the TGI (U251 glioblastoma) was greater than 100 µM and the GI50 (SF-268 CNS) was 22.9 µM. For the same compound, the TGI (SF-268 CNS) was 47.9 µM, the GI50 (MDA-MB-468 breast) was 24.8 µM and the TGI (MDA-MB-468 breast) was 50.1 µM. It also gave a GI50 (NCI-H226 lung) greater than 100 µM, a TGI (NCI-H226 lung) greater than 100 µM and a GI50 (NCI-H460 NSCLC) of 20.3 µM. It also gave a TGI (NCI-H460 NSCLC) of 43 µM, a GI50 (UACC-257 melanoma) of 18.5 µM and a TGI (UACC-257 melanoma) of 33.4 µM. For the same compound, the GI50 (M14 melanoma) was 20 µM, the TGI (M14 melanoma) was 37.1 µM and the GI50 (SN12C renal) was greater than 100 µM. The TGI (SN12C renal) was greater than 100 µM, the GI50 (HCT-116 colon) was 41.9 µM and the TGI (HCT-116 colon) was greater than 100 µM. The GI50 (SNB-75 CNS) was 22.5 µM, the TGI (SNB-75 CNS) was 44.9 µM and the GI50 (UO-31 renal) was greater than 100 µM. The TGI (UO-31 renal) was greater than 100 µM, the GI50 (MALME-3M melanoma) was 18 µM and the TGI (MALME-3M melanoma) was 32 µM. It also gave a GI50 (K-562 leukemia) of 31 µM, a TGI (K-562 leukemia) greater than 100 µM and a GI50 (SW-620 colon) of 52.3 µM. For the same compound, the TGI (SW-620 colon) was greater than 100 µM, the GI50 (HL-60(TB) leukemia) was 13.3 µM and the TGI (HL-60(TB) leukemia) was 26 µM. For the same compound, the GI50 (SF-295 CNS) was greater than 100 µM, the TGI (SF-295 CNS) was greater than 100 µM and the GI50 (BT-549 breast) was 18 µM. For the same compound, the TGI (BT-549 breast) was 32.5 µM, the GI50 (KM12 colon) was 39 µM and the TGI (KM12 colon) was greater than 100 µM. For the same compound, the GI50 (COLO 205 colon) was 25.6 µM and the TGI (COLO 205 colon) was 58.6 µM.
